In patent publication US20240140958A1, “FUSED QUADRACYCLIC COMPOUNDS, COMPOSITIONS AND USES THEREOF” (Tabomedex Biosciences, Inc., priority 2021, published 2024) one finds IC50 data, which are given here for nine molecules.

Structures are written as SMILES. pIC50: −log10 of the molar value.

One assay concerns THP-1 cells. The assay can be described thus: THP-1 cell assay: LPS-stimulated pSer78-Hsp27 ELISA. Type of assay: cell-based. Conditions: Homo sapiens, PMA-differentiated THP-1 cells, compound 60 min before 20 ng/mL LPS for 30 min. In a few lines: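 PMA-differentiated THP-1 cells (20 ng/mL PMA 24 h, then 48 h recovery) pretreated with compound 60 min, then stimulated with 20 ng/mL LPS for 30 min. Lysates (~2.5 μg/well) assayed by sandwich ELISA for pSer78-Hsp27, absorbance at 450 nm.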

Assay [1] addresses T1, MAPKAPK2 Recombinant Human Protein (Homo sapiens, UniProt P49137).
T1 construct: purchased ThermoFisher pv3317
The assay can be described thus: MK2 kinase assay (Z'-LYTE kinase assay kit). To be noted: inhibition of MK2 biochemical activity; 90 min incubation at room temperature. The method, boiled down: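 Z'-LYTE FRET assay with recombinant human MAPKAPK2 and peptide substrate; compound and ATP added, kinase reaction 90 min at room temperature, then development 60 min before stop. Coumarin (445 nm) and fluorescein (520 nm) emissions read at 400 nm excitation.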

T1 sequence (P49137 whole entry): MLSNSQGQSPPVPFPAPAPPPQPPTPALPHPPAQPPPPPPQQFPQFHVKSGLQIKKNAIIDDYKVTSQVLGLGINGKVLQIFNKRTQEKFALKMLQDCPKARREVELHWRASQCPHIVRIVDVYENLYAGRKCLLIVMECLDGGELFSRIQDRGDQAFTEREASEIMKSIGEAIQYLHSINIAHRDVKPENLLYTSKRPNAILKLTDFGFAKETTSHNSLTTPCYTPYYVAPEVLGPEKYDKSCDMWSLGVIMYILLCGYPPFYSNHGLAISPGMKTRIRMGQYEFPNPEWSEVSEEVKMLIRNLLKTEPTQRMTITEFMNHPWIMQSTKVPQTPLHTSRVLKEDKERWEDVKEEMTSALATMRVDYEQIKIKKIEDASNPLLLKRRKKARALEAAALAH

With `CN1CCC(NC(=O)c2ccc3c(c2)Cn2cc(-c4ccc(C#N)cc4)cc2-c2nccn2-3)C1` (stereo not drawn) [Example 105], the negative-log IC50 (pIC50) is 6.00 to 6.30 with THP-1 cells and > 7.30 in assay [1].
For `CN1CC2(C1)CN(C(=O)c1ccc3c(c1)Cn1cc(-c4ccc(C#N)cc4)cc1-c1nccn1-3)C2` [Example 109], the pIC50 is 6.52 to 6.70 in the assay with THP-1 cells and 7.00 to 7.30 in assay [1].
On the same counts, the results for `N#Cc1ccc(-c2cc3n(c2)Cc2cc(C(=O)N4CC(C#N)C4)ccc2-n2ccnc2-3)cc1` [Example 110] are 7.00 to 7.30 and > 7.30.
Consider `CN(C)C[C@H]1CCN1C(=O)c1ccc2c(c1)Cn1cc(-c3ccc(C#N)cc3)cc1-c1nccn1-2` [Example 115], for which the pIC50 is 6.52 to 6.70 in the assay with THP-1 cells and > 7.30 in assay [1].
On to `CN(C)C[C@@H]1CCN1C(=O)c1ccc2c(c1)Cn1cc(-c3ccc(C#N)cc3)cc1-c1nccn1-2` [Example 116], for which the negative logarithm of the IC50 (pIC50) (in the assay on THP-1 cells; in assay [1]) was > 7.30 throughout.
Consider `CN(C)CC1CN(C(=O)c2ccc3c(c2)Cn2cc(-c4ccc(C#N)cc4)cc2-c2nccn2-3)C1` [Example 117], for which the figures for the pIC50 (in the assay with THP-1 cells; in assay [1]) were 6.00 to 6.30 and 7.00 to 7.30, respectively.
On the same counts, the results for `CN1CC(NC(=O)c2ccc3c(c2)Cn2cc(-c4ccc(C#N)cc4)cc2-c2nccn2-3)C1` [Example 119, 2-(4-Cyanophenyl)-N-(1-methylazetidin-3-yl)-9H-benzo[e]imidazo[2,1-c]pyrrolo [1,2-a][1,4]diazepine-7-carboxamide] are 6.00 to 6.30 and > 7.30.
The corresponding values for `CN(C)[C@H]1C[C@H](NC(=O)c2ccc3c(c2)Cn2cc(-c4ccc(C#N)cc4)cc2-c2nccn2-3)C1` [Example 126] are 6.00 to 6.30 and > 7.30.
The corresponding values for `CC(C)N1CC(NC(=O)c2ccc3c(c2)Cn2cc(-c4ccc(C#N)cc4)cc2-c2nccn2-3)C1` [Example 128] are 6.00 to 6.30 and > 7.30.
